Test results as given in US20090156825A1, “Fluorescent compounds that bind to histone deacetylase” (priority 2007, published 2009).
“Also recorded” adds a separate entry of the source.

Target: T1, HDAC1 (Homo sapiens, UniProt Q13547)
T1 construct: Flag
Experiment: Fluorescence polarization Kd determination of FITC-labeled compounds by HDAC1 titration
Format: binding
Conditions: for time for binding to come to equilibrium: FP read over time after adding the FITC-labeled compound to HDAC1; for binding mechanism (exponential fit of Kd app versus time): replot of Kd app values vs. time, 1-phase or 2-phase exponential fit
Protocol: Titrations of HDAC1 were set up in 96-well black, flat-bottom plates. The concentrations of HDAC1 varied from 5 to 200 nM (with COMPOUND 1 and COMPOUND 2) or 20 to 450 nM (with COMPOUND 3). At time zero, the FITC-labeled compound was added and the plate inserted into the Analyst HT for FP detection. The samples were read every 5 seconds through ˜10 minutes (COMPOUND 1) or 2 hours (COMPOUND 2 and COMPOUND 3). The data at each time point was converted from mP to […] and plotted in Prism using an equation for ligand binding taking ligand-depletion into consideration (Equations 1-3) (An example of which is given in FIG. 1A).
where Lt is total fluorescently-labeled compound concentration, Rt is total HDAC concentration, Kd is the dissociation constant for the ligand to HDAC, Ab is the anisotropy when 100% of the ligand is bound, and Af is the anisotropy when 100% of the ligand is free. The values determined by the data as plotted in Figure A are Kd^app, Ab, and Af.
After determining the Kd^app for each time point, the Kd^app was replotted versus time (FIG. 1B) to determine true steady-state Kd. […] The plateau value of this exponential decay defines the steady-state Kd value.

T1 sequence (Q13547 whole entry): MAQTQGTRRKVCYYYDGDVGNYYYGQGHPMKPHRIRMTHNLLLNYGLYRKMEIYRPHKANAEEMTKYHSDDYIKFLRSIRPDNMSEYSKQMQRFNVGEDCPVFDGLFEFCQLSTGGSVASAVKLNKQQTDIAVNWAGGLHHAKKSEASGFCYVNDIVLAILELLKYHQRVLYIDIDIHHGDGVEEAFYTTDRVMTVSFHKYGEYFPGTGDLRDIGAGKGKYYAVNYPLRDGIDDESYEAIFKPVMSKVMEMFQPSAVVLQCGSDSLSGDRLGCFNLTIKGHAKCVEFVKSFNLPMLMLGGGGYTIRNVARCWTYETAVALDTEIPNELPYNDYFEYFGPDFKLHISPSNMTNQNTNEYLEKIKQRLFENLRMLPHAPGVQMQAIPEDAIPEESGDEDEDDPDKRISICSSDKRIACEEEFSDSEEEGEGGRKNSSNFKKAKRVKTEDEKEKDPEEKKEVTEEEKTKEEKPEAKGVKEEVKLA

Row | SMILES | time for binding to come to equilibrium | Kd (plateau of Kd app replotted versus time, HDAC1 5 to 200 nM, FP detection, read-out: true steady-state Kd) [µM] | binding mechanism (exponential fit of Kd app versus time) | binding mechanism (exponential fit of Kd app versus time) (listed as FITC-SAHA)
1 | O=C(CCCCCCC(=O)Nc1ccc(CNC(=S)Nc2ccc(-c3c4ccc(=O)cc-4oc4cc(O)ccc34)c(C(=O)O)c2)cc1)NO [COMPOUND 1, 5-({[(4-{[8-(hydroxyamino)-8-oxooctanoyl]amino}benzyl)amino]carbonothioyl}amino)-2-(6-hydroxy-3-oxo-3H-xanthen-9-yl)benzoic acid] | faster than could be measured by the instrument used | 0.016 | classical 1-step binding mechanism | fits 1-phase exponential curve quite well
2 | Nc1ccc(-c2ccccc2)cc1NC(=O)c1ccc(CNC(=O)OCc2ccc(CNC(=S)Nc3ccc(-c4c5ccc(=O)cc-5oc5cc(O)ccc45)c(C(=O)O)c3)cc2)cc1 [COMPOUND 2, 5-{[({4-[({[(4-{[(4-aminobiphenyl-3-yl)amino]carbonyl}benzyl)amino]carbonyl}oxy)methyl]benzyl}amino)carbonothioyl]amino}-2-(6-hydroxy-3-oxo-3H-xanthen-9-yl)benzoic acid] | 210 min | – | requires a 2-phase exponential curve; also recorded: bound slowly with an induced-fit mechanism | –
